We go through 8 molecules from US20080119496A1, “7-Substituted Purine Derivatives for Immunosuppression” (PHARMACOPEIA DRUG DISCOVERY, INC., priority 2006, published 2008).

Experiment [1] deals with IL-2-induced IFN-γ production. As to the kind of experiment: IL-2-Induced IFN-γ Production in the Mouse. The experiment is classed as in vivo. The following applies: po, 1 h, by gavage one hour before IL-2, serum IFN-γ, female BALB/c mice, read-out: inhibition of IL-2-induced IFN-gamma production. On the procedure:
Administration of IL-2 leads to an increase in serum IFN-γ in the mouse due to NK secretion of the cytokine (Thornton S, Kuhn K A, Finkelman F D and Hirsch R. NK cells secrete high levels of IFN-γ in response to in vivo administration of IL-2. Eur J Immunol 2001 31:3355-3360). The experiment was carried out essentially according to the protocol in Thornton et al. and the test compounds were administered in order to determine the level of inhibition attained. In summary, female BALB/c mice were fasted for 12-18 hours before a study but had free access to water at all times. Test compounds were administered by gavage one hour before intraperitoneal injection of IL-2 and capture antibody. At termination of the studies, the mice were sacrificed by carbon dioxide inhalation, terminal blood samples were collected by cardiac puncture and serum was generated. Serum was stored frozen until it was assayed for IFN-γ, as described by the kit manufacturer (BD Pharmingen™, San Diego, Calif.).

In the next experiment the test system is heart transplantation. The following applies: orally active; Changelian, et al., 2003; cited from earlier work.
A further experiment has as its system kidney transplantation. To be noted: orally active; Changelian, et al., 2003; cited from earlier work.
Experiment [2] concerns spontaneous autoimmune diabetes. The following applies: NOD mouse; cited from earlier work.
The subject of another experiment is GVHD. The following applies: reviewed in Cetkovic-Cvrlje and Ucken, 2004; cited from earlier work.

Usually inhibition stands for the relative decrease from the control value, in per cent.

As for `C[C@@H]1CCN(C(=O)CC#N)C[C@@H]1N(C)c1ncnc2[nH]ccc12` [CP690550], the inhibition at 30 mg/kg in experiment [1] was 96%.
As to `C[C@@H]1CCN(C(=O)CC#N)C[C@@H]1N(C)c1ncnc2[nH]ccc12` [CP-690,550], the “animal survival / immunosuppression” value in the experiment on heart transplantation and in the experiment on kidney transplantation was “prolong animal survival” each time.
`O=c1[nH]c2cnc(-n3cnc4ccccc43)nc2n1[C@@H]1CCOc2c(F)cccc21` [Example 16, 2-(1H-Benzo[d]imidazol-1-yl)-9-((R)-8-fluorochroman-4-yl)-7H-purin-8(9H)-one]: the inhibition at 30 mg/kg in experiment [1] was more than 40%.
As to `O=c1[nH]c2cnc(-n3cnc4cc(F)ccc43)nc2n1[C@@H]1CCOc2c(F)cccc21` [Example 28, 2-(5-Fluoro-1H-benzo[d]imidazol-1-yl)-9-((R)-8-fluorochroman-4-yl)-7H-purin-8(9H)-one], in experiment [1], the inhibition at 30 mg/kg is more than 40%.
On the same count and under the same terms, the same measure for `Cn1c(=O)n(C2CCOc3c(F)cc(F)cc32)c2nc(-n3cnc4ccc(C#N)cc43)ncc21` (stereo not shown) [Example 501]: more than 40%.
The same measure, in the same setting: the figure for `Cn1c(=O)n(C2CCOc3ccc(F)cc32)c2nc(-n3cnc4ccc(C#N)cc43)ncc21` (stereo not shown) [Example 504] is more than 40%.
For the molecule `Cn1c(=O)n([C@@H]2CCOc3c(F)cccc32)c2nc(-n3cnc4ccc(C#N)cc43)ncc21` [Example 505], the inhibition at 30 mg/kg in experiment [1] was more than 40%.
As for `COc1cc2ncnc(Nc3ccc(O)cc3)c2cc1OC` [JANEX-1], the “spontaneous autoimmune diabetes development” value in experiment [2] is “prevent spontaneous autoimmune diabetes development”. For the same molecule, the “severity of GVHD” value in the experiment with GVHD was “attenuate the severity of GVHD”.
